Experimental data as given in US20130189358A1, “SAXAGLIPTIN PHARMACEUTICAL FORMULATIONS” (priority 2012, published 2013).
Counter-ions that a name gives are not always drawn.

Test: Impurity levels 30 days after tablet manufacture (storage stability)
Assay type: physicochemical
Settings: 30 days after manufacture, storage at RT (15-29° C.) and NMT 67% RH; % wt impurity
Procedure: As used herein, unless indicated otherwise, the amount of saxagliptin cyclic amidine in the dosage forms following manufacture of the pharmaceutical dosage forms are measured following storage for 30 days at room temperature conditions (typically manufacture (following storage at room temperature (i.e. typically a temperature of between 15-29° C.), and at a relative humidity of not more than 67%.
Measurements of % wt impurities herein (oxamidine, cyclic amidine, etc) are taken 30 days after manufacture of the formulations [storage at ambient conditions, i.e. room temperature (RT) of between 15-29° C. and not more than 67% relative humidity (RH)].
Formulation #1 Excluding Cosmetic Coating—Analytical Data (30 Days after Tablet Manufacture)

Compound: N#C[C@@H]1C[C@@H]2C[C@@H]2N1C(=O)[C@@H](N)C12CC3CC(CC(O)(C3)C1)C2 [Saxagliptin HCl, (1S,3S,5S)-2-((2S)-2-amino-2-(3-hydroxyadamantan-1-yl)-acetyl)-2-azabicyclo[3.1.0]hexane-3-carbonitrile]
- Cyclic Amidine level: <0.03%
- Greatest Unknown Impurity level: 0.19%
- Oxamidine level: <0.03%
- Total Impurity level: 0.23%
